From article PMC5491562, “Effects of semaglutide on beta cell function and glycaemic control in participants with type 2 diabetes: a randomised, double-blind, placebo-controlled trial” (Diabetologia, 2017)

How the values were obtained:
[1] = system: participants with type 2 diabetes; details: in vivo
Description: Adverse events (AEs) were recorded from the time of the participant signing informed consent through to the end of follow-up and were regarded as treatment-emergent adverse events (TEAEs) if beginning (or increasing in severity) after the first study dose and no later than the end of follow-up.

[2] = cited from earlier work
Text: Semaglutide (Novo Nordisk, Bagsværd, Denmark) is a GLP-1 analogue in development for the once-weekly treatment of type 2 diabetes. It has 94% structural homology to native human GLP-1, and is based on the same […] technology as liraglutide. Important structural modifications make semaglutide more resistant to degradation by dipeptidyl peptidase-4 and improve binding to albumin [16]. These modifications result in a t ½ of approximately 1 week, making semaglutide appropriate for once-weekly s.c. administration, with a fully retained potency.

[3] = Steady-state pharmacokinetics of semaglutide; details: 1.0 mg s.c. at steady state; estimated in 34 participants; geometric mean (CV, %)
Text: Blood samples were drawn throughout the trial to assess PK (trough values).
time–concentration curve during a dosing interval), calculated using standard non-
compartmental methods using the linear trapezoidal method on the observed concentrations
using actual time points; maximum concentration (Cmax), derived as the maximum of all
half-life (t½), calculated as log2/λz, where λz was estimated by log-linear regression on the

SMILES: CC[C@H](C)[C@H](NC(=O)[C@H](Cc1ccccc1)NC(=O)[C@H](CCC(=O)O)NC(=O)[C@H](CCCCNC(=O)COCCOCCNC(=O)COCCOCCNC(=O)CC[C@H](NC(=O)CCCCCCCCCCCCCCCCC(=O)O)C(=O)O)NC(=O)[C@H](C)NC(=O)[C@H](C)NC(=O)[C@H](CCC(N)=O)NC(=O)CNC(=O)[C@H](CCC(=O)O)NC(=O)[C@H](CC(C)C)NC(=O)[C@H](Cc1ccc(O)cc1)NC(=O)[C@H](CO)NC(=O)[C@H](CO)NC(=O)[C@@H](NC(=O)[C@H](CC(=O)O)NC(=O)[C@H](CO)NC(=O)[C@@H](NC(=O)[C@H](Cc1ccccc1)NC(=O)[C@@H](NC(=O)CNC(=O)[C@H](CCC(=O)O)NC(=O)C(C)(C)NC(=O)[C@@H](N)Cc1cnc[nH]1)[C@@H](C)O)[C@@H](C)O)C(C)C)C(=O)N[C@@H](C)C(=O)N[C@@H](Cc1c[nH]c2ccccc12)C(=O)N[C@@H](CC(C)C)C(=O)N[C@H](C(=O)N[C@@H](CCCNC(=N)N)C(=O)NCC(=O)N[C@@H](CCCNC(=N)N)C(=O)NCC(=O)O)C(C)C [semaglutide, Semaglutide]
- Anti-semaglutide antibodies [1]: no anti-
- Any TEAE, number of participants with events (%) [1]: 28 (75.7)
- Gastrointestinal disorders, number of participants with events (%) [1]: 19 (51.4)
- Injury, poisoning and procedural complications, number of participants with events (%) [1]: 1 (2.7)
- Metabolism and nutrition disorders, number of participants with events (%) [1]: 4 (10.8)
- Musculoskeletal and connective disorders, number of participants with events (%) [1]: 1 (2.7)
- Nervous system disorders, number of participants with events (%) [1]: 5 (13.5)
- Participants with TEAEs [1]: 75.7%
- Participants with diarrhoea [1]: 10.8%
- Participants with gastrointestinal TEAEs [1]: 51.4%
- Participants with nausea [1]: 18.9%
- Participants with vomiting [1]: 16.2%
- Serious TEAE, number of participants with events (%) [1]: 2 (5.4)
- Severe TEAE, number of participants with events (%) [1]: 1 (2.7)
- Systolic blood pressure [1]: slightly decreased
- TEAE leading to withdrawal, number of participants with events (%) [1]: 1 (2.7)
- Vascular disorders, number of participants with events (%) [1]: 3 (8.1)
- t½ [2]: approximately 1 week
- Vz/F [3]: 11.2 (18.6) l
